Key:
[1] = below 4 μg/ml ineffective, above 12 μg/ml side-effects likely; cited from earlier work
[2] = Comparative experiments: anhydrous carbamazepine suspended in water or aqueous solution of a crystal habit modifier; type: physicochemical
[3] = cited from earlier work

NC(=O)N1c2ccccc2C=Cc2ccccc21 [carbamazepine, 5H-dibenz-[b,f]azepine-5-carboxamide]
therapeutic range (blood levels) [1]: 4 to 12 µg/mL | conversion of anhydrous carbamazepine microcrystals ([2]; in the presence of hydroxypropyl methylcellulose): did not convert to the dihydrate crystals | length of crystals formed from anhydrous carbamazepine ([2]; in water, absence of a crystal habit modifier, long discrete needles that cluster): ≤ 500 μm | solubility in water [3]: sparingly soluble in water

— patent publication US6534090B2, “Oral osmotic controlled drug delivery system for a sparingly soluble drug” (Sun Pharmaceutical Advanced Research Centre Limited, priority 2001, dated 2003)
